{"source": "patent US20120009271A1", "about": "“METHOD OF DISEASE-INDUCED AND RECEPTOR-MEDIATED STEM CELL NEUROPROTECTION” (MEDICAL COLLEGE OF GEORGIA, priority 2009, published 2012)", "key": {"[1]": {"test_system": "cultured human amniotic epithelial cells (AECs)", "experiment": "Immunocytochemistry of proliferation and differentiation of cultured AECs with or without melatonin", "assay_type": "cell-based", "excerpt": "This is true for both control cells and cells treated with melatonin."}, "[2]": {"test_system": "cultured human amnion stem cells", "experiment": "Oxidative stress (H202) in cultured human amnion stem cells, cell survival (Hoechst 33258, trypan blue)", "assay_type": "cell-based", "settings": "pre-treatment with melatonin 100 μM; H202 100 μM at day 4, survival at day 5; versus non-melatonin treated cells"}, "[3]": {"test_system": "OGD-exposed primary rat cells", "experiment": "Oxygen glucose deprivation (OGD) injury model, cell viability (Trypan blue and MTT assay)", "settings": "AECs 5,000 per well or melatonin 100 uM; 20,000 rat cells per well", "protocol": "To reveal the neuroprotective effects of these stem cells, cultured primary rat cells (gestation age 18) were initially exposed to OGD and immediately thereafter stem cells or conditioned media (harvested from OGD-exposed stem cells over 7 days) were added. Parallel sister cultures included non-OGD exposed rat cells (positive control). Stem cell doses were varied at 0 (negative control), 2.5%, 5%, 10% or 25% of total cell population per well. After 3 hours of stem cell or conditioned media treatment, cell viability (Trypan blue and MTT assay) and ELISA were performed.\nCultured primary rat cells (gestation age 18) were initially exposed to the oxygen glucose deprivation (OGD) injury model (92% N2 and 8% O2 gas for 90 minutes), and immediately thereafter AECs, AMCs or conditioned media (harvested from AECs or AMCs cultured over 7 days) were added to the OGD-exposed cells. Parallel sister cultures included non-OGD exposed rat cells (positive control). Placenta cell doses were varied at 0 (negative control), 2.5%, 5%, 10% or 25% of total cell population per well. After 3 hours of placenta cell or conditioned media treatment, cell viability (Trypan blue and MTT assay) and ELISA were performed.\nCultured primary rat cells (gestation age 18; 20,0000 cells per well) were initially exposed to the OGD injury model (92% N2 and 8% 02 gas for 90 minutes). […]"}, "[4]": {"settings": "in vivo; cited from earlier work"}}, "note": "“Also recorded” adds a separate entry of the source.", "data": [{"smiles": "COc1ccc2[nH]cc(CCNC(C)=O)c2c1", "note": "[melatonin, N-acetyl-5-methoxytryptamine]", "values": [{"measurement": "total TuJ1 positive cells in 5 fields (dendrite +/-)", "setting": "[1]; 100 μM Melatonin versus control, FIG. 14A", "result": "increased the total number of cells expressing Tull"}, {"measurement": "total nestin positive or nestin/MelR1 positive cells in 5 fields", "setting": "[1]; 100 μM Melatonin versus control, FIG. 14B", "result": "increases the total number of nestin positive or nestin/MelR1 positive expressing cells"}, {"measurement": "neural differentiation (TuJ1 and GFAP) of melatonin receptor 1-expressing AECs", "setting": "[1]; melatonin in growth media", "result": "enhanced neural differentiation"}, {"measurement": "proliferation of melatonin receptor 1-expressing AECs", "setting": "[1]; melatonin in growth media", "result": "dose-dependently suppressed proliferation"}, {"measurement": "cell survival after oxidative stress", "setting": "[2]", "result": "protected against cell death; also recorded: significantly greater"}, {"measurement": "neuroprotection against experimental stroke (OGD), single treatment", "setting": "[3]", "result": "exerted neuroprotection"}, {"measurement": "half life", "setting": "[4]", "result": "30 to 53", "unit": "min"}]}]}
